Entries after “also recorded” stand apart in the source; their conditions may differ.
What was measured:
MHC-I HLA-A2 = type: cell-based, human; settings: ΔGPEN; treated 24 h
HIV-Nef [1] = molecular target: T1, HIV-Nef (Human immunodeficiency virus type 1, UniProt P03406); type: cell-based, HIV-1; settings: for restoration of MHC-I levels on infected (GFP+) cells: ΔGPE transduced 48 h then treated 24 h, compared to uninfected (GFP-) cells; for Nef inhibitory potency, in words (relative to parent or comparator) / Nef IC50: 24 h; for Nef IC50: HIV ΔGPE transduced primary CD4+ T cells, upper limit of assay 1000 nM
T1 sequence (P03406 2-206): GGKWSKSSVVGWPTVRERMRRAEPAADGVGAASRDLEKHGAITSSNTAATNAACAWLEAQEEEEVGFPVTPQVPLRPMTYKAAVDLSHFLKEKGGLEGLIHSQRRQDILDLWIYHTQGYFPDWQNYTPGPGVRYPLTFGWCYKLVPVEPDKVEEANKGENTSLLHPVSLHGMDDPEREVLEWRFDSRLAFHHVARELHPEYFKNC

HIV-Nef [2] = molecular target: T1, HIV-Nef; settings: cited from earlier work; for MHC-I HLA-A2 restoration in HIV-infected primary T cells, side-by-side assays: B9 up to more than 10μM, CMA nanomolar
[3] = system: HIV-1 infected CD4+ T cells; settings: single digit micromolar concentrations; cited from earlier work
[4] = system: Nef overexpressing HEK293T cells; settings: single digit micromolar concentrations; cited from earlier work
primary CD4+ T cells [5] = experiment: 72 h viability
V-ATPase [6] = molecular target: V-ATPase (Homo sapiens, UniProt P27449); experiment: cell-based; type: cell-based; settings: for Lysotracker IC50 / V-ATPase inhibition (Lysotracker), in words: 24 h; for Lysotracker IC50: lysosomal neutralization / V-ATPase inhibition
V-ATPase [7] = settings: cited from earlier work
primary CD4+ T cells [8] = experiment: 24 h viability
Nef = settings: cited from earlier work

Chain of V-ATPase (Homo sapiens, UniProt P27449) (P27449 whole entry, looked up): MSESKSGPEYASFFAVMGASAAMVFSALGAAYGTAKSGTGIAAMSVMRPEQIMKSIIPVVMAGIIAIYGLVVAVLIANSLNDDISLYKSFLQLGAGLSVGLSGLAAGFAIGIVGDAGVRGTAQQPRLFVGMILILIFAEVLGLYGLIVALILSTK

Question: For `C/C=C/[C@H]1O[C@@](O)([C@@H](C)[C@H](O)[C@H](C)[C@H]2OC(=O)/C(OC)=C/C(C)=C/[C@@H](C)[C@@H](O)[C@@H](CC)[C@@H](OC(C)=O)[C@H](C)C/C(C)=C/C=C/[C@@H]2OC)C[C@@H](O[C@H]2C[C@@H](OC(C)=O)[C@H](OC(N)=O)[C@@H](C)O2)[C@@H]1C` [compound 33, 3’,9-diacetyl CMA], which “MHC-I surface levels in cells lacking Nef” value (MHC-I HLA-A2) is on record?
Answer: did not substantially alter MHC-I surface levels

Question: And the “restoration of MHC-I levels on infected (GFP+) cells” value (HIV-Nef [1])?
Answer: restored MHC-I levels

Question: With `C=C/C=C/C(=O)O[C@@H]1C[C@](O)([C@@H](C)[C@H](O)[C@H](C)[C@H]2OC(=O)/C(OC)=C/C(C)=C/[C@@H](C)[C@@H](O)[C@@H](C)C/C(C)=C/C=C/[C@@H]2OC)O[C@H](C(C)C)[C@H]1C` [compound 16] as the compound, how does the “Nef inhibitory potency, in words (relative to parent or comparator)” value (HIV-Nef [1]) read?
Answer: decreased potency; also recorded: improved potency compared to 14 or 15

Question: Which “MHC-I HLA-A2 restoration in HIV-infected primary T cells, side-by-side assays” value (HIV-Nef [2]) does the source give for `CC[C@H](C)C(=O)O[C@H]1C[C@@H](C)C=C2C=C[C@H](C)[C@H](CC[C@@H]3C[C@@H](O)CC(=O)O3)[C@H]21` [Lovastatin] here?
Answer: partially restored

Question: What about the “concentration for partial MHC-I restoration, relative to CMA” value (HIV-Nef [2]) of the same compound?
Answer: 2,000 fold

Question: And the “surface expression of MHC-1 and CD4” value [3]?
Answer: increases surface expression

Question: What about the “surface expression of SERINC5” value [4] of the same compound?
Answer: increases surface expression

Question: Which “toxicity, in words” value (primary CD4+ T cells [5]) does the source give for `C/C=C/[C@H]1O[C@@](O)([C@@H](C)[C@H](O)[C@H](C)[C@H]2OC(=O)/C(OC)=C/C(C)=C/[C@@H](C)[C@@H](O)[C@@H](C)[C@@H](OC(C)=O)[C@H](C)C/C(C)=C/C=C/[C@@H]2OC)C[C@@H](O[C@H]2C[C@@H](OC(C)=O)[C@H](OC(N)=O)[C@@H](C)O2)[C@@H]1C` [compound 31, 3’,9-diacetyl CMB] here?
Answer: reducing toxicity

Question: Which “Nef inhibitory potency, in words (relative to parent or comparator)” value (HIV-Nef [1]) does the source give for `CCCCCCCCC(=O)O[C@@H]1C[C@](O)([C@@H](C)[C@H](O)[C@H](C)[C@H]2OC(=O)/C(OC)=C/C(C)=C/[C@@H](C)[C@@H](O)[C@@H](C)C/C(C)=C/C=C/[C@@H]2OC)O[C@H](C(C)C)[C@H]1C` [compound 15] here?
Answer: decreased potency; also recorded: opposite effect

Question: Which “Lysotracker IC50” value (V-ATPase [6]) does the source give for `CO/C1=C\C(C)=C\[C@@H](C)C(=O)[C@@H](C)C/C(C)=C/C=C/[C@H](OC)[C@@H]([C@@H](C)[C@@H](O)[C@H](C)[C@@]2(O)CC(=O)[C@H](C)[C@@H](C(C)C)O2)OC1=O` [compound 21] here?
Answer: above the activity threshold

Question: What about the “Nef IC50” value (HIV-Nef [1]) of the same compound?
Answer: above the activity threshold

Question: With `CO/C1=C\C(C)=C\[C@@H](C)[C@@H](O)[C@@H](C)C/C(C)=C/C=C/[C@H](OC)[C@@H]([C@@H](C)[C@@H](O)[C@H](C)[C@@]2(OC)C[C@@H](O)[C@H](C)[C@@H](C(C)C)O2)OC1=O` [compound 8] as the compound, how does the “Nef inhibitory potency, in words (relative to parent or comparator)” value (HIV-Nef [1]) read?
Answer: decreased potency

Question: With `CO/C1=C\C(C)=C\[C@@H](C)C(=O)[C@@H](C)C/C(C)=C/C=C/[C@H](OC)[C@@H]([C@@H](C)[C@@H](O)[C@H](C)[C@@]2(O)C[C@@H](O)[C@H](C)[C@@H](C(C)C)O2)OC1=O` [compound 20] as the compound, how does the “Lysotracker IC50” value (V-ATPase [6]) read?
Answer: above the activity threshold

Question: What about the “Nef inhibitory potency, in words (relative to parent or comparator)” value (HIV-Nef [1]) of the same compound?
Answer: reduced activity at all concentrations tested

Question: What about the “Nef IC50” value (HIV-Nef [1]) of the same compound?
Answer: above the activity threshold

Question: For `CO/C1=C\C(C)=C\[C@@H](C)[C@@H](O)[C@@H](C)C/C(C)=C/C=C/[C@H](OC)[C@@H]([C@@H](C)[C@@H](O)[C@H](C)[C@H]2C[C@@H](O)[C@H](C)[C@@H](C(C)C)O2)OC1=O` [compound 9, 19-deoxy Baf A1], which “Nef inhibitory potency, in words (relative to parent or comparator)” value (HIV-Nef [1]) is on record?
Answer: decreased potency

Question: Which “Nef inhibitory potency, in words (relative to parent or comparator)” value (HIV-Nef [1]) does the source give for `C/C=C/[C@H]1O[C@@H]([C@@H](C)[C@H](O)[C@H](C)[C@H]2OC(=O)/C(OC)=C/C(C)=C/[C@@H](C)[C@@H](O)[C@@H](CC)[C@@H](O)[C@H](C)C/C(C)=C/C=C/[C@@H]2OC)C[C@@H](O)[C@@H]1C` [compound 38, 21-deoxy CMF] here?
Answer: no change in potency

Question: For bafilomycin D [Baf D], which “Nef inhibition, in words” value (HIV-Nef [2]) is on record?
Answer: poor inhibitor

Question: What about the “V-ATPase inhibition, in words” value (V-ATPase [7]) of the same compound?
Answer: poor inhibitor

Question: Which “toxicity, in words” value (primary CD4+ T cells [5]) does the source give for `CO/C1=C\C(C)=C\[C@@H](C)[C@@H](O)[C@@H](C)C/C(C)=C/C=C/[C@H](OC)[C@@H]([C@@H](C)[C@@H](O)[C@H](C)[C@@]2(O)C[C@@H](O[C@@H]3O[C@@H](C)[C@H](O)[C@@H](O)[C@H]3OC)[C@H](C)[C@@H](C(C)C)O2)OC1=O` [compound 18, leucanicidin, reference compound] here?
Answer: significantly more toxic

Question: Which “toxicity at 24 h, in words” value (primary CD4+ T cells [8]) does the source give for `C[C@@H]1C[C@H](C)C[C@H](C)[C@@H](O)CC(=O)O[C@H]([C@@H]2CCC[C@H]2C(=O)O)C/C=C/C=C(/C#N)[C@H](O)[C@@H](C)C1` [S1, borrelidin] here?
Answer: toxic at 24-hrs

Question: With `C=CC(C)C(OC(=O)[C@@H](C)[C@H](O)[C@H](C)[C@H]1OC(=O)/C(OC)=C/C(C)=C/[C@@H](C)[C@@H](O)[C@@H](C)C/C(C)=C/C=C/[C@@H]1OC)C(C)C` (stereo partly drawn) [compound 12] as the compound, how does the “V-ATPase inhibition (Lysotracker), in words” value (V-ATPase [6]) read?
Answer: Dramatic reductions

Question: What about the “toxicity, in words” value (primary CD4+ T cells [5]) of the same compound?
Answer: Dramatic reductions

Question: What about the “decrease in Nef potency compared to 2” value (HIV-Nef [1]; vs Baf A1) of the same compound?
Answer: 26 fold

Question: Which IC50 (V-ATPase [6]) does the source give for `C/C=C/[C@H]1O[C@@](O)([C@@H](C)[C@H](O)[C@H](C)[C@H]2OC(=O)/C(OC)=C/C(C)=C/[C@@H](C)[C@@H](O)[C@@H](CC)[C@@H](O)[C@H](C)C/C(C)=C/C=C/[C@@H]2OC)C[C@@H](O[C@H]2C[C@@H](O)[C@H](OC(N)=O)[C@@H](C)O2)[C@@H]1C` [compound 1, concanamycin A, reference compound] here?
Answer: 1.7 nM

Question: And the “MHC-I HLA-A2 restoration in HIV-infected primary T cells, side-by-side assays” value (HIV-Nef [2])?
Answer: near-fully restore

Question: What about the “MHC-I surface levels in cells lacking Nef” value (MHC-I HLA-A2) of the same compound?
Answer: did not substantially alter MHC-I surface levels

Question: What about the “restoration of MHC-I levels on infected (GFP+) cells” value (HIV-Nef [1]) of the same compound?
Answer: restored MHC-I levels

Question: What about the “binding between Nef and CMA” value (Nef) of the same compound?
Answer: no binding

Question: With `C/C=C/[C@H]1O[C@@H]([C@@H](C)[C@H](O)[C@H](C)[C@H]2OC(=O)/C(OC)=C/C(C)=C/[C@@H](C)[C@@H](O)[C@@H](CC)[C@@H](O)[C@H](C)C/C(C)=C/C=C/[C@@H]2O)C[C@@H](O)[C@@H]1C` [compound 39, 21-deoxy-16-hydroxy CMF] as the compound, how does the “reduction of Nef inhibitory activity compared to CMF (24)” value (HIV-Nef [1]; vs CMF) read?
Answer: over 200 fold

Question: With `CO/C1=C\C(C)=C\[C@@H](C)[C@@H](O)[C@@H](C)C/C(C)=C/C=C/[C@H](OC)[C@@H]([C@@H](C)[C@@H](O)[C@H](C)[C@H]2C[C@@H](OC)[C@H](C)[C@@H](C(C)C)O2)OC1=O` [compound 10] as the compound, how does the “Nef inhibitory potency, in words (relative to parent or comparator)” value (HIV-Nef [1]) read?
Answer: decreased potency

Question: For `C/C=C/C=C/[C@H]1O[C@@](O)([C@@H](C)[C@H](O)[C@H](C)[C@H]2OC(=O)/C(OC)=C/C(C)=C/[C@@H](C)[C@@H](O)[C@@H](C)C/C(C)=C/C=C/[C@@H]2OC)C[C@@H](O[C@H]2C[C@@H](O)[C@H](O)[C@@H](C)O2)[C@@H]1C` [compound 19, PC-766B, reference compound], which “toxicity, in words” value (primary CD4+ T cells [5]) is on record?
Answer: significantly more toxic

Question: Which “V-ATPase inhibition (Lysotracker), in words” value (V-ATPase [6]) does the source give for `C/C=C/[C@H]1O[C@@](O)([C@@H](C)[C@H](O)[C@H](C)[C@H]2OC(=O)/C(OC)=C/C(C)=C/[C@@H](C)[C@@H](O)[C@@H](C)[C@@H](O)[C@H](C)C/C(C)=C/C=C/[C@@H]2OC)C[C@@H](O[C@H]2C[C@@H](O)[C@H](OC(N)=O)[C@@H](C)O2)[C@@H]1C` [compound 22, concanamycin B, reference compound] here?
Answer: even greater decrease in V-ATPase inhibitory potency

Question: What about the “decrease in Nef inhibitory potency compared to CMA (1)” value (HIV-Nef [1]; vs CMA) of the same compound?
Answer: ~10 fold

Question: With `CO/C1=C\C(C)=C\[C@@H](C)[C@@H](O)[C@@H](C)C/C(C)=C/C=C/[C@H](OC)[C@@H]([C@@H](C)[C@@H](O)[C@H](C)[C@H]2C=C(O)[C@H](C)[C@@H](C(C)C)O2)OC1=O` [compound 11] as the compound, how does the “Nef inhibitory potency, in words (relative to parent or comparator)” value (HIV-Nef [1]) read?
Answer: decreased potency

Question: Which “Nef inhibitory potency, in words (relative to parent or comparator)” value (HIV-Nef [1]) does the source give for `CCCCC(=O)O[C@@H]1C[C@](O)([C@@H](C)[C@H](O)[C@H](C)[C@H]2OC(=O)/C(OC)=C/C(C)=C/[C@@H](C)[C@@H](O)[C@@H](C)C/C(C)=C/C=C/[C@@H]2OC)O[C@H](C(C)C)[C@H]1C` [compound 14] here?
Answer: decreased potency; also recorded: opposite effect
